Our source for the EC90 and CC90 values is patent US20120202794A1 (priority 2011, published 2012).

One series deals with HCV Replicon 1b. Put plainly: HCV inhibition assay, HCV replicon 1b (Clone A or ET-lunet cells; RT-PCR or luciferase reporter). The format is cell-based. The settings on record: Hepatitis C virus, 96 h, HCV replicon 1b; 4 days incubation; read-out: Replicon 1b potency EC90. A digest of the protocol:
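Inhibition read either as luciferase signal (ET replicon) or as HCV 5′-NTR RNA by RT-PCR relative to rRNA, % = (1−2^−ΔΔCt)×100, against DMSO controls, giving EC50 and EC90. Cells: Clone A or ET-lunet, seeded 1500 or 3000/well, exposed 4 days at 37 °C, 5% CO2, 0.5% DMSO.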
(In antiviral work, replicon cells carry a viral genome segment that copies itself.)

Series [1] is described as follows: Cell cytotoxicity assay (MTS), CC90 as reported in Table 1, cell line not stated. In kind it is cell-based. The settings on record: human, cell line not given. In short, it runs like this: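 MTS read-out (490 nm, 2 h dye step) after 8-day exposure at 37° C. Huh7, HepG2, BxPC3 were seeded at 2×10^3 and CEM at 5×10^3 cells/well, with compound serially diluted from 100 μM. CC90 comes from comparison with untreated control wells.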

In general, EC90 refers to the concentration at which the effect reaches the 90% level. For `CC(C)C[C@H]1C(=O)N[C@@H](c2ccccc2)CN1C(=O)[C@@H]1C[C@H]1c1ccc(Cl)cc1F` [Compound 255, (3S,6S)-4-[(1R,2R)-2-(4-Chloro-2-fluoro-phenyl)-cyclopropanecarbonyl]-3-isobutyl-6-phenyl-piperazin-2-one], the EC90 in the series with HCV Replicon 1b worked out at 0.36 µM. Further, in series [1], the CC90 at 8 days was more than 10 µM.

As for `CC(C)C[C@H]1CN(C(=O)[C@@H]2C[C@H]2c2ccc(F)cc2F)[C@@H](CC(C)C)C(=O)N1` [Compound 256, (3S,6S)-4-[(1R,2R)-2-(2,4-Difluoro-phenyl)-cyclopropanecarbonyl]-3,6-diisobutyl-piperazin-2-one], the EC90 in the series on HCV Replicon 1b was determined as 0.22 µM. The molecule also registered a CC90 at 8 days in series [1] of more than 10 µM.

Take `CCC[C@H]1CN(C(=O)[C@@H]2C[C@H]2c2ccc(F)c(F)c2)[C@@H](CC(C)C)C(=O)N1` [Compound 257, (3S,6S)-4-[(1R,2R)-2-(3,4-Difluoro-phenyl)-cyclopropanecarbonyl]-3-isobutyl-6-propyl-piperazin-2-one]: the EC90 with HCV Replicon 1b is 0.59 µM. In series [1], the CC90 at 8 days was more than 10 µM.

Take `CC(C)C[C@H]1C(=O)N[C@@H](C2CCCCC2)CN1C(=O)[C@@H]1C[C@H]1c1ccc(F)c(F)c1` [Compound 258, (3S,6S)-6-Cyclohexyl-4-[(1R,2R)-2-(3,4-difluoro-phenyl)-cyclopropanecarbonyl]-3-isobutyl-piperazin-2-one]: the EC90 in the series on HCV Replicon 1b is 0.56 µM. In addition, the CC90 at 8 days in series [1] is more than 10 µM.

Take `CC(C)C[C@H]1C(=O)N[C@@H](C2CCCC2)CN1C(=O)[C@@H]1C[C@H]1c1ccc(F)c(F)c1` [Compound 259, (3S,6S)-6-Cyclopentyl-4-[(1R,2R)-2-(3,4-difluoro-phenyl)-cyclopropanecarbonyl]-3-isobutyl-piperazin-2-one]: in the series with HCV Replicon 1b, the EC90 is 0.59 µM. The molecule also came in with a CC90 at 8 days in series [1] of more than 10 µM.

With `CC(C)C[C@H]1C(=O)N[C@@H](c2ccccc2)CN1C(=O)[C@@H]1C[C@H]1c1ccc(F)c(F)c1` [Compound 260, (3S,6S)-4-[(1R,2R)-2-(3,4-Difluoro-phenyl)-cyclopropanecarbonyl]-3-isobutyl-6-phenyl-piperazin-2-one], the EC90 with HCV Replicon 1b came to 0.23 µM. Also, the CC90 at 8 days in series [1] is more than 10 µM.

Turning to `CC(C)C[C@H]1CN(C(=O)/C=C/c2ccc(N(C)C)cc2)[C@@H](CC(C)C)C(=O)N1` [Compound 261, (3S,6S)-4-((E)-3-(4-(dimethylamino)phenyl)acryloyl)-3,6-diisobutylpiperazin-2-one], in the series with HCV Replicon 1b, the EC90 is more than 10 µM. This molecule returned a CC90 at 8 days in series [1] (MTS assay, 8 days incubation) of more than 10 µM.

`CC(C)C[C@H]1CN(C(=O)C#Cc2cccnc2)[C@@H](CC(C)C)C(=O)N1` [Compound 262, (3S,6S)-3,6-diisobutyl-4-(3-(pyridin-3-yl)propioloyl)piperazin-2-one]: the EC90 in the series on HCV Replicon 1b was more than 10 µM. In addition, the CC90 at 8 days in series [1] (MTS assay, 8 days incubation) was more than 10 µM.

For the molecule `COc1ccc(/C=C/C(=O)N2C[C@H](CC(C)C)NC(=O)[C@@H]2CC(C)C)cc1` [Compound 263, (3S,6S)-3,6-diisobutyl-4-((E)-3-(4-methoxyphenyl)acryloyl)piperazin-2-one], in the series on HCV Replicon 1b, the EC90 amounted to 8.7 µM. The molecule also returned a CC90 at 8 days in series [1] (MTS assay, 8 days incubation) of more than 10 µM.

Turning to `CC(C)C[C@H]1CN(C(=O)/C=C/c2cccc(Cl)c2)[C@@H](CC(C)C)C(=O)N1` [Compound 264, (3S,6S)-4-[3-(3-chlorophenyl)-acryloyl]-3,6-diisobutyl-piperazin-2-one], the EC90 with HCV Replicon 1b came to 8.1 µM. The molecule also displayed a CC90 at 8 days in series [1] (MTS assay, 8 days incubation) of more than 10 µM.

Regarding `CC(C)C[C@H]1CN(C(=O)/C=C/c2ccccc2Cl)[C@@H](CC(C)C)C(=O)N1` [Compound 265, (3S,6S)-4-[3-(2-chlorophenyl)-acryloyl]-3,6-diisobutyl-piperazin-2-one], in the series on HCV Replicon 1b, the EC90 was 9.75 µM. In series [1] (MTS assay, 8 days incubation), this molecule returned a CC90 at 8 days of more than 10 µM.

On to `CC(C)C[C@H]1CN(C(=O)/C=C/c2ccccc2F)[C@@H](CC(C)C)C(=O)N1` [Compound 266], for which, in the series with HCV Replicon 1b, the EC90 came out at 7.93 µM. Besides, the CC90 at 8 days in series [1] (MTS assay, 8 days incubation) was more than 10 µM.
